Experimental data published in patent US11098203B2, “Polymer coatings” (COMMONWEALTH SCIENTIFIC AND INDUSTRIAL RESEARCH ORGANISATION, priority 2016, dated 2021).

Structure (SMILES): C=CC(=O)N1C(=C)C(c2ccccc2F)CC1=O (stereo not shown) [DHP, 5-methylene-1-(prop-2-enoyl)-4-(2-fluorophenyl)-dihydropyrrol-2-one]
- melting point: 121 to 122 °C
